Data: patent publication US9399649B2, “Compounds for treating spinal muscular atrophy” (PTC Therapeutics Inc., priority 2012, dated 2016)

How the values were obtained:
[1] = test system: full length SMN2 minigene mRNA containing SMN2 exon 7; assay: SMN2 minigene mRNA splicing RT-qPCR assay in cultured cells; assay type: cell-based, human; settings: Homo sapiens, HEK293-H; HEK293H cells stably transfected with SMN2-A minigene, 24 hours, 7-point concentration curve; concentration giving 1.5-fold full length SMN2 mRNA vs vehicle; read-out: EC1.5x for production of full length SMN2 mRNA
Summary of the method: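 Read-out is minigene FL mRNA (exon 7 included) relative to vehicle, from efficiency-corrected ΔΔCt with GAPDH normalisation. Primers and probe span exon 7, exon 8 and luciferase, so endogenous SMN is not detected. Stable SMN2-A minigene HEK293H cells, 24 h compound exposure at 37 °C, 7-point curve in duplicate.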

Smn protein = Smn protein assay in cultured cells (SMN HTRF); assay type: cell-based, human; settings: SMA patient fibroblast cells (GM03813), 48 hours; for EC1.5x for Smn protein expression: 7-point concentration curve, concentration producing 1.5 times Smn protein vs DMSO vehicle; for maximum fold (Fold) increase of Smn protein: 7-point concentration data, relative to vehicle control
Summary of the method: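 Smn protein measured by HTRF (anti-SMN d2/kryptate) in lysates of SMA patient fibroblasts after 48 h compound treatment, 7-point 3.16-fold dilutions, triplicates. The 665/620 nm ratio is blank-corrected to ΔF, then divided by the vehicle ΔF to give fold increase.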

Structure (SMILES)	EC (1.5-fold) [1] [µM]	EC1.5x for Smn protein expression (Smn protein)	maximum fold (Fold) increase of Smn protein (Smn protein)	melting point [°C]
CN1CCN(c2ccc3cc(-c4ccc5nn(C)cc5c4)oc(=O)c3c2)CC1 [Cpd 157, 3-(2-methyl-2H-indazol-5-yl)-7-(4-methylpiperazin-1-yl)-1H-isochromen-1-one]	≤ 0.1	**** (an EC1.5×≦0.3 nM is indicated by four stars (****))	**** (a fold increase between >1.5 and ≦1.65 is indicated by four stars (****))	239 to 240
COc1cccc(-c2cc3ccc(N4CCN(C)CC4)cc3c(=O)o2)c1 [Cpd 19, 3-(3-methoxyphenyl)-7-(4-methylpiperazin-1-yl)-1H-isochromen-1-one]	3 to 30	–	* (A maximum fold increase of ≦1.2 is indicated by one star (*))	140 to 142
CCN1[C@H](C)CN(c2ccc3cc(-c4cn5cc(C)ncc5n4)oc(=O)c3c2)C[C@@H]1C [Cpd 129, 7-[(3R,5S)-4-ethyl-3,5-dimethylpiperazin-1-yl]-3-(6-methylimidazo[1,2-a]pyrazin-2-yl)-1H-isochromen-1-one]	≤ 0.1	**** (an EC1.5×≦0.3 nM is indicated by four stars (****))	***** (a fold increase >1.65 is indicated by five stars (*****))	233 to 238
COc1cccc(-c2cc3ccc(N4CCNCC4)cc3c(=O)o2)c1 [Cpd 18, 3-(3-methoxyphenyl)-7-(piperazin-1-yl)-1H-isochromen-1-one]	0.3 to 1	–	* (A maximum fold increase of ≦1.2 is indicated by one star (*))	140 to 142
Cc1cn2cc(-c3cc4ccc(N5CCN(C6COC6)[C@@H](C)C5)cc4c(=O)o3)nc2c(C)n1 [Cpd 139, 3-(6,8-dimethylimidazo[1,2-a]pyrazin-2-yl)-7-[(3S)-3-methyl-4-(oxetan-3-yl)piperazin-1-yl]-1H-isochromen-1-one]	0.3 to 1	** (an EC1.5× between >1 μM, and ≦3 nM is indicated by two stars (**))	***** (a fold increase >1.65 is indicated by five stars (*****))	251 to 256
Cc1cn2cc(-c3cc4ccc(N5C[C@@H](C)N(C)[C@@H](C)C5)cc4c(=O)o3)nc2c(C)n1 [Cpd 149, 3-(6,8-dimethylimidazo[1,2-a]pyrazin-2-yl)-7-[(3R,5S)-3,4,5-trimethylpiperazin-1-yl]-1H-isochromen-1-one]	≤ 0.1	**** (an EC1.5×≦0.3 nM is indicated by four stars (****))	***** (a fold increase >1.65 is indicated by five stars (*****))	261 to 266
Cc1cn2cc(-c3cc4ccc(N5CCNCC5)cc4c(=O)o3)nc2cn1 [Cpd 56, 3-(6-methylimidazo[1,2-a]pyrazin-2-yl)-7-(piperazin-1-yl)-1H-isochromen-1-one]	≤ 0.1	**** (an EC1.5×≦0.3 nM is indicated by four stars (****))	***** (a fold increase >1.65 is indicated by five stars (*****))	225 to 227
COCCN1CC=C(c2ccc3cc(-c4cn5cc(C)nc(C)c5n4)oc(=O)c3c2)CC1 [Cpd 92, 3-(6,8-dimethylimidazo[1,2-a]pyrazin-2-yl)-7-[1-(2-methoxyethyl)-1,2,3,6-tetrahydropyridin-4-yl]-1H-isochromen-1-one]	≤ 0.1	**** (an EC1.5×≦0.3 nM is indicated by four stars (****))	***** (a fold increase >1.65 is indicated by five stars (*****))	174 to 176
CCN1CCN(c2ccc3cc(-c4cn5cc(Cl)nc(C)c5n4)oc(=O)c3c2)CC1 [Cpd 102, 3-(6-chloro-8-methylimidazo[1,2-a]pyrazin-2-yl)-7-(4-ethylpiperazin-1-yl)-1H-isochromen-1-one]	0.1 to 0.3	–	*** (a fold increase between >1.35 and ≦1.5 is indicated by three stars (***))	229 to 234
Cc1nc(Cl)cn2cc(-c3cc4ccc(N5CCN[C@H](C)C5)cc4c(=O)o3)nc12 [Cpd 109, 3-(6-chloro-8-methylimidazo[1,2-a]pyrazin-2-yl)-7-[(3R)-3-methylpiperazin-1-yl]-1H-isochromen-1-one]	≤ 0.1	*** (an EC1.5× between >0.3 nM and ≦1 nM is indicated by three stars (***))	***** (a fold increase >1.65 is indicated by five stars (*****))	251 to 258
COc1ccc(-c2cc3ccc(N4CCN[C@@H](C)C4)cc3c(=O)o2)c(F)c1 [Cpd 45, 3-(2-fluoro-4-methoxyphenyl)-7-[(3S)-3-methylpiperazin-1-yl]-1H-isochromen-1-one]	0.1 to 0.3	–	*** (a fold increase between >1.35 and ≦1.5 is indicated by three stars (***))	167 to 168
Cc1cn2cc(-c3cc4ccc(N5CCN(CCO)[C@H](C)C5)cc4c(=O)o3)nc2c(C)n1 [Cpd 142, 3-(6,8-dimethylimidazo[1,2-a]pyrazin-2-yl)-7-[(3R)-4-(2-hydroxyethyl)-3-methylpiperazin-1-yl]-1H-isochromen-1-one]	≤ 0.1	**** (an EC1.5×≦0.3 nM is indicated by four stars (****))	***** (a fold increase >1.65 is indicated by five stars (*****))	256 to 261
CN1CCN(c2ccc3cc(-c4ccc5c(c4)OCCO5)oc(=O)c3c2)CC1 [Cpd 38, 3-(2,3-dihydro-1,4-benzodioxin-6-yl)-7-(4-methylpiperazin-1-yl)-1H-isochromen-1-one]	3 to 30	–	* (A maximum fold increase of ≦1.2 is indicated by one star (*))	163 to 165
Cc1cn2cc(-c3cc4ccc(N5CCN6CCC[C@@H]6C5)cc4c(=O)o3)nc2cn1 [Cpd 68, 7-[(8aR)-hexahydropyrrolo[1,2-a]pyrazin-2(1H)-yl]-3-(6-methylimidazo[1,2-a]pyrazin-2-yl)-1H-isochromen-1-one]	≤ 0.1	* (An EC1.5× for Smn protein expression between >3 μM and <10 μM is indicated by one star (*))	**** (a fold increase between >1.5 and ≦1.65 is indicated by four stars (****))	255 to 257
C[C@@H]1CN(c2ccc3cc(-c4ccc5c(c4)OCCO5)oc(=O)c3c2)CCN1 [Cpd 37, 3-(2,3-dihydro-1,4-benzodioxin-6-yl)-7-[(3R)-3-methylpiperazin-1-yl]-1H-isochromen-1-one]	1 to 3	–	* (A maximum fold increase of ≦1.2 is indicated by one star (*))	175 to 177
COc1ccc(-c2cc3ccc(N4CCNCC4)cc3c(=O)o2)cc1 [Cpd 24, 3-(4-methoxyphenyl)-7-(piperazin-1-yl)-1H-isochromen-1-one]	0.1 to 0.3	*** (an EC1.5× between >0.3 nM and ≦1 nM is indicated by three stars (***))	*** (a fold increase between >1.35 and ≦1.5 is indicated by three stars (***))	235 to 238
Cc1nc(Cl)cn2cc(-c3cc4ccc(C5=CCNCC5)cc4c(=O)o3)nc12 [Cpd 113, 3-(6-chloro-8-methylimidazo[1,2-a]pyrazin-2-yl)-7-(1,2,3,6-tetrahydropyridin-4-yl)-1H-isochromen-1-one]	≤ 0.1	** (an EC1.5× between >1 μM, and ≦3 nM is indicated by two stars (**))	**** (a fold increase between >1.5 and ≦1.65 is indicated by four stars (****))	269 to 273
CCCN1[C@H](C)CN(c2ccc3cc(-c4cn5cc(C)nc(C)c5n4)oc(=O)c3c2)C[C@@H]1C [Cpd 148, 3-(6,8-dimethylimidazo[1,2-a]pyrazin-2-yl)-7-[(3R,5S)-3,5-dimethyl-4-propylpiperazin-1-yl]-1H-isochromen-1-one]	≤ 0.1	*** (an EC1.5× between >0.3 nM and ≦1 nM is indicated by three stars (***))	**** (a fold increase between >1.5 and ≦1.65 is indicated by four stars (****))	259 to 263
COc1ccccc1-c1cc2ccc(N3C[C@@H](C)N[C@@H](C)C3)cc2c(=O)o1 [Cpd 23, 7-[(3R,5S)-3,5-dimethylpiperazin-1-yl]-3-(2-methoxyphenyl)-1H-isochromen-1-one]	1 to 3	–	* (A maximum fold increase of ≦1.2 is indicated by one star (*))	154 to 157
COCCN1CCN(c2ccc3cc(-c4cn5cc(C)nc(C)c5n4)oc(=O)c3c2)CC1 [Cpd 85, 3-(6,8-dimethylimidazo[1,2-a]pyrazin-2-yl)-7-[4-(2-methoxyethyl)piperazin-1-yl]-1H-isochromen-1-one]	0.1 to 0.3	*** (an EC1.5× between >0.3 nM and ≦1 nM is indicated by three stars (***))	***** (a fold increase >1.65 is indicated by five stars (*****))	192 to 194
